Here are results for 16 molecules from ChEMBL document CHEMBL1201862, “PubChem BioAssay data set” (2004).

Counter-ions that a name gives are not always drawn.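 48-hour exposure; five concentrations; linearly interpolated endpoints. Abbreviation: GI50, concentration required for 50% inhibition of growth.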 Activity calls are given as the source filed them. Cut-off read from the data, not from the text of the source: active = GI50 up to about 1.1 µM and inactive = higher. Some results are limits rather than exact numbers.

What all share (test): inhibition of tumour cell growth, NCI panel, 48 h
Test [1] relates to HCT-15.
The subject of test [2] is SK-MEL-2.
Test [3] deals with DMS-114.
The test system of test [4] is CCRF-CEM.
In test [5] the test system is NCI-H226.
For test [6], the system named is DLD-1.
Test [7] relates to M19-MEL.
Test [8] deals with K562.
The subject of test [9] is SF-268.
Test [10] deals with KM12.
Test [11] deals with ACHN.
Test [12] deals with HOP-92.
Test [13] has as its system SNB-78.
Test [14] relates to DU-145.
The subject of test [15] is MCF7.
The test system of test [16] is MDA-MB-231.
Test [17] concerns Hs-578T.
In test [18] the test system is NCI/ADR-RES.
Test [19] relates to PC-3.
In test [20] the test system is T47D.

For `COC(=O)C(=O)C1(CCC(C)=O)c2ccccc2-c2ccccc21`, the GI50 in test [1] is 56.4 µM; in test [2], 83.4 µM (inactive); in test [3], 65.5 µM (inactive); in test [4], 63.2 µM (inactive); in test [5], > 100 µM (inactive); in test [6], 66.2 µM (inactive). The GI50 in test [7] was > 100 µM (inactive); in test [8], 44.5 µM (inactive); in test [9], > 100 µM (inactive); in test [10], 74.3 µM (inactive); in test [11], > 100 µM (inactive).

With `COc1cc(/C=N/c2nncs2)ccc1O`, the GI50 is above 100 µM in [1]; > 100 µM (inactive) in test [2]; > 100 µM (inactive) in test [3]; > 100 µM (inactive) in test [4]; > 100 µM (inactive) in test [5]; > 100 µM (inactive) in test [7]. The GI50 in test [12], in [13], in test [8], in test [9], in [10] and in [11] was > 100 µM (inactive) throughout.

`COc1cccc2c(Nc3ccc(S(=O)(=O)NC(C)=O)cc3)c3ccc([N+](=O)[O-])cc3nc12`: the GI50 in [14] is > 70.3 µM (inactive); in [1] it was 47 µM; in [2] it was 49.9 µM (inactive); in test [4], 55.5 µM (inactive); in test [5], 29.2 µM (inactive); in test [12], 26.2 µM (inactive). The GI50 in test [15] is 13.1 µM (inactive); in test [8] it was 22 µM (inactive); in test [16] it was 21.2 µM (inactive); in test [9], 25.1 µM (inactive); in [17] it was 32.3 µM (inactive); in [10] it was 11 µM (inactive). Further, the GI50 in [18] was > 57.1 µM (inactive); in [19], 20.4 µM (inactive); in [20], 94.4 µM (inactive); in test [11], 26.2 µM (inactive).

Consider `CC(C)(C)c1ccc(Oc2ccc(C#N)c(C#N)c2)c(C(C)(C)C)c1`, for which the GI50 in test [1] is 14.4 µM; in test [2], 40.6 µM (inactive); in test [3], 19.6 µM (inactive); in [4], 23.2 µM (inactive); in [5], 46.6 µM (inactive); in test [6], 37 µM (inactive). Also, the GI50 was 31.8 µM (inactive) in test [12]; 42.5 µM (inactive) in test [13]; 21.2 µM (inactive) in [8]; 32.7 µM (inactive) in test [9]; 29.8 µM (inactive) in test [10]; 34.9 µM (inactive) in [11].

As to `Cn1c(CCC#N)nc2ccc(Br)cc2c1=O`, the GI50 in [1] is above 100 µM; in test [2], > 100 µM (inactive); in test [3], > 100 µM (inactive); in test [4], 51.9 µM (inactive); in test [5], > 100 µM (inactive); in test [6], > 100 µM (inactive). For the same molecule, the GI50 in test [12], in test [8], in test [9], in test [10] and in test [11] was > 100 µM (inactive) throughout.

Consider `O=C(O)CCSC(=O)Nc1ccccc1`, for which the GI50 in test [1] was above 100 µM; in test [2], > 100 µM (inactive); in test [4], > 100 µM (inactive); in test [5], > 100 µM (inactive); in [6], > 100 µM (inactive); in [13], > 100 µM (inactive). In addition, the GI50 was > 100 µM (inactive) in test [8], 44.8 µM (inactive) in [9], > 100 µM (inactive) in [10] and 97.9 µM (inactive) in test [11].

For `CCN(CC)C1=Nc2ccccc2-n2c(C)cnc2C1`, the GI50 in test [14] is > 100 µM (inactive); in test [1] it was above 100 µM; in test [2], > 100 µM (inactive); in test [4], > 100 µM (inactive); in test [5] it was > 100 µM (inactive); in test [12], > 100 µM (inactive). For the same molecule, the GI50 in [15], in test [8], in test [16], in [9], in test [17] and in test [10] was > 100 µM (inactive) in each case. The GI50 in [18], in test [19], in [20] and in test [11] was > 100 µM (inactive) in each case.

Consider `N#CC(C#N)=C1NN=C(Cl)c2ccccc21`, for which the GI50 is above 100 µM in [1]; > 100 µM (inactive) in test [2]; > 100 µM (inactive) in test [3]; 88.1 µM (inactive) in [4]; > 100 µM (inactive) in test [6]; > 100 µM (inactive) in [7]. In addition, the GI50 was 47.2 µM (inactive) in [12]; > 100 µM (inactive) in test [8]; 72.9 µM (inactive) in test [9]; > 100 µM (inactive) in test [10]; > 100 µM (inactive) in test [11].

On to `O=C(c1cc(O)ccc1O)c1ccccc1C(Cl)(Cl)Cl`, for which the GI50 was above 100 µM in [1]; > 100 µM (inactive) in test [2]; 32 µM (inactive) in test [3]; 61.5 µM (inactive) in [4]; > 100 µM (inactive) in [5]; 90.8 µM (inactive) in [7]. Besides, the GI50 in test [12] is 38.8 µM (inactive); in [13] it was > 100 µM (inactive); in test [8], 61.8 µM (inactive); in [9], > 100 µM (inactive); in [10] it was > 100 µM (inactive); in test [11], > 100 µM (inactive).

Consider `COC(=O)c1c(OC)cccc1C(=O)O`, for which the GI50 was above 100 µM in [1]; > 100 µM (inactive) in [2]; > 100 µM (inactive) in [3]; > 100 µM (inactive) in [4]; > 100 µM (inactive) in test [5]; > 100 µM (inactive) in test [7]. Besides, the GI50 in test [13], in test [8], in test [9], in test [10] and in test [11] was > 100 µM (inactive) each time.

As to `C[C@]12CC[C@H](O)CC1=CC[C@@H]1C2CC[C@]2(C)NC(=O)C(C#N)CC12` (some centres not stated), the GI50 was 37.8 µM in test [1]; > 100 µM (inactive) in test [2]; > 100 µM (inactive) in test [3]; > 100 µM (inactive) in [4]; > 100 µM (inactive) in test [5]; > 100 µM (inactive) in test [6]. Also, the GI50 in test [7] is > 100 µM (inactive); in test [13] it was > 100 µM (inactive); in [8] it was 6.89 µM (inactive); in [10], > 100 µM (inactive); in test [11] it was 28.6 µM (inactive).

Regarding `OCC(O)C(O)C(O)c1nn(-c2ccc(Cl)cc2)c2nc3cc(Cl)c(Cl)cc3nc12` (configuration not stated), the GI50 in [2] is 24.8 µM (inactive); in [3], 94.4 µM (inactive); in [4] it was 52.1 µM (inactive); in [5] it was 21.1 µM (inactive); in test [6], > 100 µM (inactive); in [7], > 100 µM (inactive). Moreover, the GI50 is 20.7 µM (inactive) in test [13]; 50.8 µM (inactive) in test [8]; 71.1 µM (inactive) in test [9]; > 10 µM (inactive) in test [10]; 73.1 µM (inactive) in test [11].

As for `CC(=O)OCC12C(OC(C)=O)C[C@@H](C)C3(CC(c4ccoc4)OC3=O)C1CCC(OC(C)=O)C21CO1` (some centres not stated), the GI50 was > 100 µM (inactive) in [14]; above 100 µM in [1]; > 100 µM (inactive) in test [2]; > 100 µM (inactive) in test [4]; > 100 µM (inactive) in test [5]; > 100 µM (inactive) in [12]. Further, the GI50 in test [15], in test [8], in [16], in [9], in test [17] and in test [10] was > 100 µM (inactive) in each case. Also, the GI50 in test [18], in test [19], in test [20] and in test [11] was > 100 µM (inactive) throughout.

As for `CN(C)c1ccc(/C=C/C(=O)c2ccccc2)cc1Br`, the GI50 is 22.9 µM in [1]; 18.4 µM (inactive) in test [2]; 17.3 µM (inactive) in [3]; 20.5 µM (inactive) in [4]; 18.9 µM (inactive) in test [6]; 18.7 µM (inactive) in test [7]. The GI50 in test [8] was 20.6 µM (inactive); in test [9], 18.2 µM (inactive); in [10], 15.8 µM (inactive); in test [11], 22.8 µM (inactive).

On to `C[C@H]1NC(=O)C2CCCCN2C(=O)CN(C)C(=O)CNC(=O)C2CCCCN2C(=O)[C@@H](NC(=O)c2nc3ccccc3cc2O)[C@@H](C)NC(=O)C2CCCCN2C(=O)CN(C)C(=O)CNC(=O)[C@@H]2CCCCN2C(=O)C1NC(=O)c1nc2ccccc2cc1O` (some centres not stated), for which the GI50 was 2.75 µM in [1]; 0.0817 µM (active) in [2]; 0.23 µM (active) in test [3]; 1.02 µM (active) in test [4]; 0.0664 µM (active) in [5]; 0.181 µM (active) in test [7]. Further, the GI50 was 0.0865 µM (active) in test [13]; 0.231 µM (active) in test [8]; 0.186 µM (active) in test [9]; 0.27 µM (active) in [10]; 0.232 µM (active) in test [11].

Take `CCc1ccc2c(c1)N(CC(C)CN(C)C)c1ccccc1S2` (configuration not stated) [ETYMEMAZINE HYDROCHLORIDE]: the GI50 was 7.91 µM (inactive) in test [14]; 6.21 µM in [1]; 5.08 µM (inactive) in test [2]; 2.18 µM (inactive) in [4]; 9.86 µM (inactive) in test [5]; 4.66 µM (inactive) in [12]. For the same molecule, the GI50 is 3.92 µM (inactive) in test [15]; 0.37 µM (active) in [8]; 4.89 µM (inactive) in test [16]; 7.5 µM (inactive) in test [9]; 6.01 µM (inactive) in test [17]; 3.61 µM (inactive) in test [10]. In addition, the GI50 was 5.22 µM (inactive) in [18], 4.93 µM (inactive) in test [19], 3.66 µM (inactive) in test [20] and 5.21 µM (inactive) in [11].
